# Data from US20240207427A1, “SELECTIVE DRUG RELEASE FROM INTERNALIZED CONJUGATES OF BIOLOGICALLY ACTIVE COMPOUNDS” (priority 2021, published 2024).
# Like-named read-outs stand apart in the source and are kept apart here.
# Tests used:
# Format in all cases: cell-based
# [1] = system: renal carcinoma cells (786-O); test: In vitro potency (CellTiter-Glo, 96 h), 786-O; details: Homo sapiens, 786-0, 96 h
# Summary of the method: (§1)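 Four-day continuous exposure at 37 °C to serially diluted ADC or free camptothecin payload, in RPMI 1640 with 20% FBS after 24 h pre-plating. Luminescent signal gave IC50 (ng/mL; nmol/L).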
# melanoma cells (A2058) = test: In vitro potency (CellTiter-Glo, 96 h), A2058; details: Homo sapiens, A2058, 96 h
# Description: (§2) In vitro potency was assessed on multiple cancer cell lines. All cell lines were authenticated by STR profiling at IDEXX Bioresearch and cultured for no more than 2 months after resuscitation. Cells cultured in log-phase growth were seeded for 24 hours in 96-well plates containing […] RPMI 1640 supplemented with 20% FBS. Serial dilutions of antibody-drug conjugates in cell culture media were prepared at 4× working concentrations, and 50 μL of each dilution was added to the 96-well plates. Following addition of test articles, cells were incubated with test articles for 4 days at 37 0° C. After 96 hours, growth inhibition was assessed by CellTiterGlo® (Promega, Madison, WI) and luminescence was measured on a plate reader.
# (§3) In Table 7, IC50 values for ADCs are given in ng/mL. Cell viability was determined by CellTiter-Glo staining after 96 h exposure to ADC. ND=Not Determined. Ag2 is an antibody targeting a ubiquitous and readily internalizable antigen. The cancer cell lines tested are renal carcinoma cells (786-0), melanoma cells (A2058), pancreatic cancer cells (BxPC3), non-small-cell lung cancer cells (Calu1), anaplastic large cell lymphoma cells (DEL, DELBVR, Karpas299), Hodgkin's lymphoma cells (L540cy), (Ls174T), breast cancer cells (MDA-MB-231), acute myeloid leukemia cells (MOLM-13), and B-lymphocyte cancer cells (SU-DHL4).
# as §2, with “FBS.” for “FBS. Serial dilutions of antibody-drug conjugates in cell culture media were prepared at 4× working concentrations, and 50 μL of each dilution was added to the 96-well plates.”
# (§4) Cell viability was determined by CellTiter-Glo staining after 96 h exposure to the compound. ND=Not Determined. The cancer cell lines tested are renal carcinoma cells (786-0), melanoma cells (A2058), pancreatic cancer cells (BxPC3), non-small-cell lung cancer cells (Calu1), anaplastic large cell lymphoma cells (DEL, DELBVR, Karpas299), Hodgkin's lymphoma cells (L540cy), (Ls 174T), breast cancer cells (MDA-MB-231), acute myeloid leukemia cells (MOLM-13), B-lymphocyte cancer cells (SU-DHL4), multiple myeloma cells (MM.1R), (U266), and melanoma cells (SK-MEL-5).
# as §2, with “37°” for “37 0°”
# (§5) In the following Tables IC50 values for ADCs and CPT free drugs are given in ng/mL and nmol/L concentrations. Cell viability was determined by CellTiter-Glo staining after 96 h exposure to ADC or CPT free drug.
# (§6) Cell viability was determined by CellTiter-Glo staining after 96 h exposure to ADC. ND=Not Determined.
# [2] = system: pancreatic cancer cells (BxPC3); test: In vitro potency (CellTiter-Glo, 96 h), BxPC3; details: Homo sapiens, BXPC-3, 96 h
# Summary of the method: (§7)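 Seed log-phase cells 24 h (RPMI 1640, 20% FBS); add ADC serial dilutions; incubate 96 h, 37 °C; read luminescence; IC50 in ng/mL.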
# [3] = system: non-small-cell lung cancer cells (Calu1); test: In vitro potency (CellTiter-Glo, 96 h), Calu1; details: Homo sapiens, Calu-1, 96 h
# Description: as §2, §3
# as §2, with “FBS.” for “FBS. Serial dilutions of antibody-drug conjugates in cell culture media were prepared at 4× working concentrations, and 50 μL of each dilution was added to the 96-well plates.”
# as §4
# as §2, with “37°” for “37 0°”
# as §5, §6
# [4] = system: anaplastic large cell lymphoma cells (DEL); test: In vitro potency (CellTiter-Glo, 96 h), DEL
# Summary of the method: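 Cells in log-phase growth seeded 24 h in RPMI 1640 with 20% FBS, then exposed to serially diluted ADC or CPT free drug for 96 h at 37 °C. Growth inhibition read by CellTiter-Glo luminescence; IC50 reported in ng/mL or nmol/L.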
# [5] = system: anaplastic large cell lymphoma cells (DELBVR); test: In vitro potency (CellTiter-Glo, 96 h), DELBVR
# Summary of the method: as §1
# [6] = system: anaplastic large cell lymphoma cells (Karpas299); test: In vitro potency (CellTiter-Glo, 96 h), Karpas299; details: Homo sapiens, KARPAS-299, 96 h
# Summary of the method: as §1
# [7] = system: Hodgkin's lymphoma cells (L540cy); test: In vitro potency (CellTiter-Glo, 96 h), L540cy
# Summary of the method: as §1
# [8] = system: breast cancer cells (MDA-MB-231); test: In vitro potency (CellTiter-Glo, 96 h), MDA-MB-231; details: Homo sapiens, MDA-MB-231, 96 h
# Summary of the method: as §1
# [9] = system: acute myeloid leukemia cells (MOLM-13); test: In vitro potency (CellTiter-Glo, 96 h), MOLM-13; details: Homo sapiens, MOLM-13, 96 h
# Summary of the method: as §7
# [10] = system: B-lymphocyte cancer cells (SU-DHL4); test: In vitro potency (CellTiter-Glo, 96 h), SU-DHL-4; details: Homo sapiens, SU-DHL-4, 96 h
# Summary of the method: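 Following a 24 h seeding period in 20% FBS-supplemented RPMI 1640, log-phase cells receive graded concentrations of conjugate. Incubation runs for 4 days at 37 °C, after which luminescence is recorded and IC50 calculated in ng/mL.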
# Ls174T cells = test: In vitro potency (CellTiter-Glo, 96 h), Ls174T; details: Homo sapiens, LS174T, CPT free drugs
# Summary of the method: as §1
# [11] = CPT free drugs, Table 24, CellTiter-Glo after 96 h exposure, read-out: IC50 (nmol/L) 786-O
# [12] = CPT free drugs, Table 24, CellTiter-Glo after 96 h exposure, read-out: IC50 (nmol/L) A2058
# [13] = CPT free drugs, Table 24, CellTiter-Glo after 96 h exposure, read-out: IC50 (nmol/L) BxPC3
# [14] = CPT free drugs, Table 24, CellTiter-Glo after 96 h exposure, read-out: IC50 (nmol/L) Calu1
# [15] = CPT free drugs, Table 24, CellTiter-Glo after 96 h exposure, read-out: IC50 (nmol/L) DEL
# [16] = CPT free drugs, Table 24, CellTiter-Glo after 96 h exposure, read-out: IC50 (nmol/L) DELBVR
# [17] = CPT free drugs, Table 24, CellTiter-Glo after 96 h exposure, read-out: IC50 (nmol/L) Karpas299
# [18] = CPT free drugs, Table 24, CellTiter-Glo after 96 h exposure, read-out: IC50 (nmol/L) L540cy
# [19] = Table 24, CellTiter-Glo after 96 h exposure, read-out: IC50 (nmol/L) Ls174T
# [20] = CPT free drugs, Table 24, CellTiter-Glo after 96 h exposure, read-out: IC50 (nmol/L) MDAMB231
# [21] = CPT free drugs, Table 24, CellTiter-Glo after 96 h exposure, read-out: IC50 (nmol/L) MOLM-13
# [22] = CPT free drugs, Table 24, CellTiter-Glo after 96 h exposure, read-out: IC50 (nmol/L) SU-DHL-4
Compound,"IC50 [1, 11]",IC50 (melanoma cells (A2058); [12]),"IC50 [2, 13]","IC50 [3, 14]","IC50 [4, 15]","IC50 [5, 16]","IC50 [6, 17]","IC50 [7, 18]",IC50 (Ls174T cells; [19]),"IC50 [8, 20]","IC50 [9, 21]","IC50 [10, 22]",also measured
CC[C@@]1(O)C(=O)OCc2c1cc1n(c2=O)Cc2c-1nc1cc3c(cc1c2CN)OCCO3 [Compound 2af],,,,,,,,,,,,,"IC50 ([1]; read-out: IC50 (nmol/L) 786-O, CPT free drugs, Table 24, CellTiter-Glo after 96 h exposure): 7 nmol/L; IC50 (melanoma cells (A2058); read-out: IC50 (nmol/L) A2058): 2 nmol/L; IC50 ([2]; read-out: IC50 (nmol/L) BxPC3, CPT free drugs, Table 24, CellTiter-Glo after 96 h exposure): 7 nmol/L; IC50 ([3]; read-out: IC50 (nmol/L) Calu1): 57 nmol/L; IC50 ([4]; read-out: IC50 (nmol/L) DEL, CPT free drugs, Table 24, CellTiter-Glo after 96 h exposure): 1 nmol/L; IC50 ([5]; read-out: IC50 (nmol/L) DELBVR, CPT free drugs, Table 24, CellTiter-Glo after 96 h exposure): 1 nmol/L; IC50 ([6]; read-out: IC50 (nmol/L) Karpas299, CPT free drugs, Table 24, CellTiter-Glo after 96 h exposure): 6 nmol/L; IC50 ([7]; read-out: IC50 (nmol/L) L540cy, CPT free drugs, Table 24, CellTiter-Glo after 96 h exposure): 3 nmol/L; IC50 ([8]; read-out: IC50 (nmol/L) MDAMB231, CPT free drugs, Table 24, CellTiter-Glo after 96 h exposure): 39 nmol/L; IC50 ([9]; read-out: IC50 (nmol/L) MOLM-13, CPT free drugs, Table 24, CellTiter-Glo after 96 h exposure): 32 nmol/L; IC50 ([10]; read-out: IC50 (nmol/L) SU-DHL-4, CPT free drugs, Table 24, CellTiter-Glo after 96 h exposure): 2 nmol/L"
"CC[C@@]1(O)C(=O)OCc2c1cc1n(c2=O)Cc2c-1nc1cc(OC)c(OC)cc1c2CN [Compound 2ao, (19S)-10-(aminomethyl)-19-ethyl-19-hydroxy-6,7-dimethoxy-17-oxa-3,13-diazapentacyclo[11.8.0.02,11.04,9.015,20]henicosa-1(21),2,4(9),5,7,10,15 (20)-heptaene-14,18-dione]",> 1000 nmol/L,> 1000 nmol/L,> 1000 nmol/L,> 1000 nmol/L,937 nmol/L,> 1000 nmol/L,> 1000 nmol/L,> 1000 nmol/L,> 1000 nmol/L,> 1000 nmol/L,> 1000 nmol/L,> 1000 nmol/L,
CC[C@@]1(O)C(=O)OCc2c1cc1n(c2=O)Cc2c-1nc1cc(F)c(C)cc1c2CN [Compound 2h],3 nmol/L,1 nmol/L,8 nmol/L,16 nmol/L,0.5 nmol/L,0.8 nmol/L,3 nmol/L,3 nmol/L,1.7 nmol/L,2 nmol/L,14 nmol/L,2 nmol/L,
CC[C@@]1(O)C(=O)OCc2c1cc1n(c2=O)Cc2c-1nc1ccc3c(c1c2CN)OCCO3 [Compound 2ag],35 nmol/L,10 nmol/L,57 nmol/L,153 nmol/L,6 nmol/L,13 nmol/L,34 nmol/L,15 nmol/L,,177 nmol/L,63 nmol/L,16 nmol/L,
[2H]C1([2H])Oc2cc3nc4c(c(CN)c3cc2O1)Cn1c-4cc2c(c1=O)COC(=O)[C@]2(O)CC [Compound 2an],1 nmol/L,0.5 nmol/L,1 nmol/L,1 nmol/L,0.2 nmol/L,0.2 nmol/L,1 nmol/L,,6 nmol/L,1 nmol/L,4 nmol/L,1 nmol/L,
CC[C@@]1(O)C(=O)OCc2c1cc1n(c2=O)Cc2c-1nc1cc3c(c(Br)c1c2CN)OCO3 [Compound 5c],,,,,,,,,,,,,"IC50 ([1]; read-out: 786-O IC50, Table 28, CPT free drugs, renal carcinoma cells 786-O, 96 h, CellTiter-Glo): 1 nmol/L; IC50 (melanoma cells (A2058); read-out: A2058 IC50): 5 nmol/L; IC50 ([2]; read-out: BxPC3 IC50, Table 28, CPT free drugs, pancreatic cancer cells BxPC3, 96 h, CellTiter-Glo): 8 nmol/L; IC50 ([3]; read-out: Calu1 IC50): 4 nmol/L; IC50 ([4]; read-out: DEL IC50, Table 28, CPT free drugs, anaplastic large cell lymphoma cells DEL, CellTiter-Glo): 0.3 nmol/L; IC50 ([6]; read-out: Karpas299 IC50, Table 28, CPT free drugs, anaplastic large cell lymphoma cells Karpas299, 96 h, CellTiter-Glo): 1 nmol/L; IC50 ([7]; read-out: L540cy IC50, Table 28, CPT free drugs, Hodgkin's lymphoma cells L540cy, CellTiter-Glo): 0.8 nmol/L; IC50 (Ls174T cells; 96 h, read-out: Ls174T IC50, Table 28, Ls174T cells, 96 h, CellTiter-Glo): 6 nmol/L; IC50 ([8]; read-out: MDAMB231 IC50, Table 28, CPT free drugs, breast cancer cells MDA-MB-231, 96 h, CellTiter-Glo): 2 nmol/L; IC50 ([9]; read-out: MOLM-13 IC50, Table 28, CPT free drugs, acute myeloid leukemia cells MOLM-13, 96 h, CellTiter-Glo): 2 nmol/L; IC50 ([10]; read-out: SU-DHL-4 IC50, Table 28, CPT free drugs, B-lymphocyte cancer cells SU-DHL4, 96 h, CellTiter-Glo): 0.5 nmol/L"
CC[C@@]1(O)C(=O)OCc2c1cc1n(c2=O)Cc2c-1nc1ccccc1c2CN [Compound 2ae],17 nmol/L,5 nmol/L,23 nmol/L,65 nmol/L,5 nmol/L,5 nmol/L,14 nmol/L,6 nmol/L,,107 nmol/L,191 nmol/L,8 nmol/L,
